SMILES strings stand for the structures.

The values that follow come from ChEMBL document CHEMBL1126338, “The synthesis of a conformationally rigid calcium channel blocker” (Bioorg Med Chem Lett, 1992).

The species entered for one experiment is Oryctolagus cuniculus. As to the kind of experiment: Inhibition of K+ induced contraction of rabbit aorta. Type of experiment: functional. The note with it: read-out: I50.
For `COc1ccc([C@@H]2Sc3ccccc3N(CCN(C)C)C(=O)[C@@H]2OC(C)=O)cc1` [DILTIAZEM], the IC50 worked out at 1800 nM.
Regarding `COc1ccc([C@@H]2CC3c4ccccc4C2C[C@]32CCNC2)cc1` (stereo partly specified), the IC50 stood at 2000 nM.
Same read-out and setting: to `COc1ccc([C@@H]2CC3c4ccccc4C2C[C@@]32CCNC2)cc1` (stereo partly specified) belongs 950 nM.

Tested on in a further experiment: not listed separately
As to the kind of experiment: Inhibition of [3H]D-cis-diltiazem binding to calcium channel of isolated guinea pig skeletal muscle microsomal preparation. Type of experiment: microsomes, Cavia porcellus, Muscle tissue.
Conditions: not given
A word on the Kd: it is the concentration at which binding is half-saturated. Regarding `COc1ccc([C@@H]2Sc3ccccc3N(CCN(C)C)C(=O)[C@@H]2OC(C)=O)cc1` [DILTIAZEM], the dissociation constant (Kd) is 380 nM.
For the molecule `COc1ccc([C@@H]2CC3c4ccccc4C2C[C@]32CCNC2)cc1` (stereo partly specified), the dissociation constant Kd was found to be 1260 nM.
Regarding `COc1ccc([C@@H]2CC3c4ccccc4C2C[C@@]32CCNC2)cc1` (stereo partly specified), the Kd was found to be 330 nM.
